Where a name gives a salt, the structure may show the parent alone. Read-outs that look alike come from different tables or passages of the source.
What was measured:
[1] = target: T1, recombinant human maltase glucoamylase (MGA) (Homo sapiens, UniProt O43451); experiment: Recombinant MGA inhibition, maltose substrate, glucose oxidase assay (Ki); type: biochemical; conditions: for Ki: maltose substrate, read-out: Ki against recombinant human MGA
Method: (§1) Enzyme Activity Assays: Measurement of dGMII inhibition was carried out as outlined in the literature.^12 Analysis of recombinant MGA inhibition and determination of the kinetic constants for competitive inhibition have been described.^60 Briefly, analysis of MGA inhibition was performed using maltose as the substrate, and measuring the release of glucose. Reactions were carried out in 100 mM MES buffer pH 6.5 at 37° C. The reaction was stopped by boiling for 3 min. 20 μL aliquots were taken and added to 100 μL of glucose oxidase assay reagent (Sigma) in a 96-well plate. Reactions were developed for 1 hour and absorbance was measured at 450 nm to determine the amount of glucose produced by MGA activity in the reaction. All reactions were performed in triplicate and absorbance measurements were averaged to give a final result.
Enzyme Kinetics: Kinetic parameters of recombinant MGA were determined using the glucose oxidase assay to follow the production of glucose upon addition of enzyme (15 nM) at increasing maltose concentrations (from 2.5 mM to 30 mM) with a reaction time of 15 minutes. The Ki value was determined by measuring the rate of maltose hydrolysis by MGA at varying inhibitor concentrations. Data were plotted in Lineweaver-Burk plots (1/rate vs. 1/[substrate]) and the Ki value was determined by the equation Ki=Km[I]/(Vmax)s−Km, where “s” is the slope of the line. The Ki reported was an average of the Ki values obtained from each of the different inhibitor concentrations.
Enzyme Activity Assay. Analysis of MGA inhibition was performed using maltose as the substrate, and measuring the release of glucose. Reactions were carried out in 100 mM MES buffer pH 6.5 at 37° C. for 15 min. The reaction was stopped by boiling for 3 min. 20 μL aliquots were taken and added to 100 μL of glucose oxidase assay reagent (Sigma) in a 96-well plate. Reactions were allowed to proceed for 1 h and absorbance was measured at 450 nm to determine the amount of glucose produced by MGA activity in the reaction. One unit of activity is defined as the hydrolysis of one […] of maltose per minute. All reactions were performed in triplicate and absorbance measurements were averaged to give a final result.
Enzyme Kinetics. Kinetic parameters of recombinant MGA were determined using the glucose oxidase assay to follow the production of glucose upon addition of enzyme (15 nM) at increasing maltose concentrations (from 1 mM-3.5 mM) with a reaction time of 15 min. The program GraFit 4.0.14 was used to fit the data to the Michaelis-Menten equation and estimate the kinetic parameters, Km and Vmax, of the enzyme. Ki values for each inhibitor were determined by measuring the rate of maltose hydrolysis by MGA at varying inhibitor concentrations. Data were plotted in Lineweaver-Burk plots (1/rate vs. 1/[substrate]) and Ki values were determined by the equation Ki=Km[I]/(Vmax)m−Km, where “m” is the slope of the line. The Ki reported for each inhibitor was estimated by averaging the Ki values obtained from each of the different inhibitor concentrations.

[2] = target: T2, Drosophila melanogaster Golgi α-mannosidase II (dGMII) (Drosophila melanogaster, UniProt Q24451); experiment: dGMII inhibition; type: biochemical
T2 sequence (Q24451 1-1108): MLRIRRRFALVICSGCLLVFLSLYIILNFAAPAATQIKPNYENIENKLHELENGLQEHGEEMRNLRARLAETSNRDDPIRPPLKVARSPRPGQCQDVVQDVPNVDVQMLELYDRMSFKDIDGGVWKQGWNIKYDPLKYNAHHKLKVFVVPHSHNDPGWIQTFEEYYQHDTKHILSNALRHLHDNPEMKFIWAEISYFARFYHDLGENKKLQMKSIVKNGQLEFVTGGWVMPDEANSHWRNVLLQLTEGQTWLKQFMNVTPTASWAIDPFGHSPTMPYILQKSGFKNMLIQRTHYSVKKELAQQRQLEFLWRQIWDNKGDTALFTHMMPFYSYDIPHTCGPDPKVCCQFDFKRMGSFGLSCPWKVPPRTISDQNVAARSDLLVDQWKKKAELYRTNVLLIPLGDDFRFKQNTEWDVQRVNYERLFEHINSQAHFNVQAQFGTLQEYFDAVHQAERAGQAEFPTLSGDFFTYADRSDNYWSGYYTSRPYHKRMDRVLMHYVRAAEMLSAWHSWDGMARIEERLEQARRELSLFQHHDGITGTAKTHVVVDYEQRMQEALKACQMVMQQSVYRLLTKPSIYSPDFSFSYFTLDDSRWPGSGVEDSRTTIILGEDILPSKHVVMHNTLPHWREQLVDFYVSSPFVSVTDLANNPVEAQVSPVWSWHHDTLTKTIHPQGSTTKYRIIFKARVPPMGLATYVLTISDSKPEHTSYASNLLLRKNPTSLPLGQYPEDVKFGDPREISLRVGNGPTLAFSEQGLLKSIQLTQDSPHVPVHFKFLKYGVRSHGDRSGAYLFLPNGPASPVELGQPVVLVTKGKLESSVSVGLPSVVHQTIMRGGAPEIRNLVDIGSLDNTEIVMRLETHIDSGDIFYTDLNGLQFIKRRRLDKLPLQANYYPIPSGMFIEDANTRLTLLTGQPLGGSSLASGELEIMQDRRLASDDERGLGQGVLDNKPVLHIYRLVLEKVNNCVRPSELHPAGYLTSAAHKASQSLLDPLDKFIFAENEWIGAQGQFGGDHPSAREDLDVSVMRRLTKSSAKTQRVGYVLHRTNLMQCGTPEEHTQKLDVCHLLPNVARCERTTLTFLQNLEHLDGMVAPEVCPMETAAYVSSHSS
Method: as §1

[3] = target: T1, recombinant human maltase glucoamylase (MGA); experiment: MGA inhibition, p-nitrophenyl α-D-glucopyranoside substrate (IC50); type: biochemical; conditions: p-nitrophenyl α-D-glucopyranoside as substrate
Method: The assays were carried out in 96-well microtiter plates containing 100 mM MES buffer pH 6.5, inhibitor and pNP-glucose as substrate, with a final volume of 50 μL. Reactions were incubated at 37° C. for 35 min and terminated by addition of 50 μL of 0.5 M sodium carbonate. […] All reactions were performed in triplicate and absorbance measurements were averaged to give a final result.

[4] = target: T1, recombinant human maltase glucoamylase (MGA); conditions: cited from earlier work
[5] = target: T2, Drosophila melanogaster Golgi α-mannosidase II (dGMII); conditions: read-out: IC50 against dGMII, cited from earlier work

T1 sequence (O43451 87-954 limits assumed): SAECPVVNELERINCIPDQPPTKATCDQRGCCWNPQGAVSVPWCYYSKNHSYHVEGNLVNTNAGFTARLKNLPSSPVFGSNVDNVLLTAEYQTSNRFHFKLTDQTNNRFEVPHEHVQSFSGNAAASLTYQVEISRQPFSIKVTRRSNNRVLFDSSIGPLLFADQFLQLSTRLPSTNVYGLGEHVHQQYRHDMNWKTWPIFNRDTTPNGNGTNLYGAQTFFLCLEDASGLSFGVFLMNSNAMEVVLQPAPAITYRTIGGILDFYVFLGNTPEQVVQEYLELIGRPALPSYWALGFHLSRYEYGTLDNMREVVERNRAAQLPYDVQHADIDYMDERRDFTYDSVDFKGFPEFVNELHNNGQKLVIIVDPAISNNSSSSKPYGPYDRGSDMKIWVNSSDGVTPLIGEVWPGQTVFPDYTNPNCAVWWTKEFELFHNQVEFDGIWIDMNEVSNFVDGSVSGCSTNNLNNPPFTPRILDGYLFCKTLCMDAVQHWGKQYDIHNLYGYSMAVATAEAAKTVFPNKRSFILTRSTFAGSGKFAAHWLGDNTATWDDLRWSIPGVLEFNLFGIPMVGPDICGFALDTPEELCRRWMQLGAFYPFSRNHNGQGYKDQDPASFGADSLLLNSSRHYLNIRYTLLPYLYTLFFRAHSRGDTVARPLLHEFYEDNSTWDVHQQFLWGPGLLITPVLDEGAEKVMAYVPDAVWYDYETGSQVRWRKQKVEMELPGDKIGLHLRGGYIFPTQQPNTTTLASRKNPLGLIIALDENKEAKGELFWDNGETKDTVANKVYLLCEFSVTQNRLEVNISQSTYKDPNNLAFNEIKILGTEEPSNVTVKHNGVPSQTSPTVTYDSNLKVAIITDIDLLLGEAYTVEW

SMILES: CCCCCCCCCCCCCC[S+]1CC(O)C(O)C1CO (as salt: chloride) [Compound 48, 1,4-Dideoxy-1,4-[(1-tetradecyl)-(R)-episulfoniumylidene]-D-arabinitol chloride]
- melting point: 86 to 88 °C

SMILES: CCCCCCCCCCCCCCCCCC[S+]1CC(O)C(O)C1CO (as salt: chloride) [Compound 49, 1,4-Dideoxy-1,4-[(1-octadecyl)-(R)-episulfoniumylidene]-D-arabiiiitol chloride]
- melting point: 95 to 97 °C

SMILES: CCCCCCCCCCCCCC[S+]1CC(O)C(O)C1CO (as salt: triflate) [Compound 44, 1,4-Dideoxy-1,4-[(1-tetradecyl)-(R)-episulfoniumylidene]-D-arabinitol triflate]
- melting point: 69 to 71 °C

SMILES: O=C([O-])[C@H](O)[C@H](O)[C@H](O)C[S@@+]1C[C@H](O)[C@@H](O)[C@@H]1CO [Compound 4, 1,4-Dideoxy-1,4-[[(2′S,3′S,4′R)-2′,3′,4′-trihydroxy-4′-carboxybutyl]-episulfoniumyl-idene]-L-arabinitol inner salt]
- inhibitory activity against recombinant human MGA (in words) [1]: Only compound 5, with the D-arabinitol configuration in the heterocyclic ring displayed by salacinol 1, was found to be active

SMILES: O=C([O-])C(O)C(O)C(O)C[S+]1CC(O)C(O)C1CO [Compound 5, 1,4-Dideoxy-1,4-[[(2′S,3′S,4′R)-2′,3′,4′-trihydroxy-4′-carboxybutyl]-episulfoniumyl-idene]-D-arabinitol inner salt]
- Ki [1]: 10 µM

SMILES: O=C(O)[C@@H](O)[C@@H](O)[C@H](O)[C@@H](O)CN1C[C@H](O)[C@@H](O)[C@@H]1CO [Compound 20, 6′-((1,4-Dideoxy-1,4-imino-L-arabinitol)-4-N-ammonium)-6′-deoxy-L-gulonate]
- inhibitory activity against recombinant human MGA (in words) [1]: not active on either enzyme
- activity against dGMII (in words) [2]: not active on either enzyme

SMILES: O=C(O)[C@@H](O)[C@@H](O)[C@H](O)[C@@H](O)CN1C[C@@H](O)[C@H](O)[C@H]1CO [Compound 21, 6′-((1,4-Dideoxy-1,4-imino-D-arabinitol)-4-N-ammonium)-6′-deoxy-L-gulonic acid hydro-chloride]
- Ki [1]: 21 µM
- improvement of dGMII inhibition over salacinol, kotalanol and other analogues ([2]; 0.3 mM vs approximately 7.5 mM): 25 fold
- IC50 ([2]; read-out: IC50 against dGMII): 300 µM

SMILES: CCCCCCCCCCCCCC[S+]1CC(O)C(O)C1CO [Compound 44, 1,4-Dideoxy-1,4-[(1-tetradecyl)-(R)-episulfoniumylidene]-D-arabinitol triflate]
- IC50 [3]: 25 µM

SMILES: CCCCCC[S+]1CC(O)C(O)C1CO [Compound 46, 1,4-Dideoxy-1,4-[(1-hexyl)-(R)-episulfoniumylidene]-D-arabinitol chloride]
- IC50 [3]: 50 µM

SMILES: CCCCCCCCCCCCCC[S+]1CC(O)C(O)C1CO [Compound 48, 1,4-Dideoxy-1,4-[(1-tetradecyl)-(R)-episulfoniumylidene]-D-arabinitol chloride]
- IC50 [3]: 30 µM

SMILES: CCCCCCCCCCCCCCCCCC[S+]1CC(O)C(O)C1CO [Compound 49, 1,4-Dideoxy-1,4-[(1-octadecyl)-(R)-episulfoniumylidene]-D-arabiiiitol chloride]
- IC50 [3]: 15 µM

SMILES: CC(C)CC[S+]1CC(O)C(O)C1CO [Compound 50, 1,4-Dideoxy-1,4-[[1-(3-methyl)-butyl]-(R)-episulfoniumylidene]-D-arabinitol chloride]
- IC50 [3]: 50 µM

SMILES: O=S(=O)([O-])OC(CO)C(O)C(O)C[S+]1CC(O)C(O)C1CO (stereo not shown) [Compound 78]
- Ki [1]: 20 ± 4 µM

SMILES: O=S(=O)([O-])OC(CO)C(O)C(O)C[Se+]1CC(O)C(O)C1CO [Compound 79, 1,4-Dideoxy-1,4[[2S,3S,4S]-2,3,5-trihydroxy-4-(sulfooxy)-pentyl]-epi-selenoniumylidene]-D-arabinitol Inner salt]
- Ki [1]: 53 ± 5 µM

SMILES: O=S(=O)([O-])O[C@H](CO)[C@H](O)[C@@H](O)C[S+]1C[C@@H](O)[C@H](O)[C@H]1CO (stereo partly drawn) [Compound 80, 1,4-Dideoxy-1,4[[2R,3R,4R]-2,3,5-trihydroxy-4-(sulfooxy)-pentyl]-epi-sulfoniumylidene]-D-arabinitol Inner salt]
- inhibitory activity against recombinant human MGA (in words) [1]: not active

SMILES: O=S(=O)([O-])OC(CO)C(O)C(O)C[Se+]1CC(O)C(O)C1CO [Compound 81, 1,4-Dideoxy-1,4[[2R,3R,4R]-2,3,5-trihydroxy-4-(sulfooxy)-pentyl]-epi-selenoniumylidene]-D-arabinitol Inner salt]
- inhibitory activity against recombinant human MGA (in words) [1]: not active

SMILES: O=S(=O)([O-])O[C@@H]([C@H](O)C[S@+]1C[C@@H](O)[C@H](O)[C@H]1CO)[C@@H](O)CO [Compound 89]
- inhibitory activity against MGA (in words) [4]: inactive

SMILES: O=S(=O)([O-])OC(CO)C(O)C[Se+]1CC(O)C(O)C1CO (stereo not shown) [blintol]
- IC50 [5]: ~7500 µM
- Ki ([4]; read-out: Ki against MGA, reference compounds, unit inferred): 0.49 ± 0.05 µM

SMILES: O=S(=O)([O-])OC(C(O)C[S+]1CC(O)C(O)C1CO)C(O)C(O)C(O)CO (stereo not shown) [kotalanol]
- IC50 [5]: ~7500 µM

SMILES: O=S(=O)([O-])OC(CO)C(O)C[S+]1CC(O)C(O)C1CO (stereo not shown) [salacinol]
- IC50 [5]: ~7500 µM

SMILES: O[C@H]1[C@H]2[C@H](O)CCCN2C[C@H]1O [swainsonine]
- IC50 ([5]; swainsonine, literature value): 0.02 to 0.04 µM
